Patent US9855238B2, “Compositions comprising 15-HEPE and methods of using the same” (Afimmune Limited, priority 2015, dated 2018)
Values joined by “and” are separate entries in the source; they are usually repeats but may differ in a detail not shown here. Identical values can stand only once.

How the values were obtained:
Format in all cases: in vivo, human
[1] = Phase I Part 1 single ascending dose (SAD) pharmacokinetics of plasma 15(S)-HEPE, fasted; conditions: for AUC0-last / Cmax / Tlast / Tmax: plasma 15(S)-HEPE, Day 1; for AUC0-last / Cmax: geom. mean (geom. CV %); for Tlast / Tmax: median (minimum, maximum)
Procedure: (§1) A Phase I, single-centre, randomised, double-blind, placebo-controlled study in male and female healthy volunteers aged 18 to 45 years, inclusive was performed. Fifty-seven (57) subjects were enrolled with 8 subjects per cohort (ideally 4 males and 4 females, but no less than 3 per gender). Cohort 5 enrolled a total of 9 subjects to account for discontinued subjects. The effective date of study commencement was defined as inclusion of the first subject (inclusion starts with the informed consent signature). Subjects who were enrolled in Part 1 of the study (single dose cohorts) could have been brought back and re-enrolled in Part 2 (multiple dose) provided they had no AEs related to the study drug and that there was at least a 14-day washout period before starting the multiple dose. There were 18 subjects who participated in both study parts. The subjects underwent screening within 21 days prior to study Day 1.
Part 1 comprised 4 dose cohorts (100 mg, 500 mg, 1000 mg, and 2000 mg). Six (6) subjects were randomized to receive DS102 and 2 subjects received matching placebo. A single oral dose of DS102 or matching placebo was administered.
(§2) In Part 1, DS102 capsules (Lot No. 2540M-1504) or matching placebo (Lot No. KM73) were administered in a single oral dose according to Table 1.
(§3) For study Part 1, Cohorts 1, 2, 3, and 4 blood samples were taken predose on Day 1 up to 312 hours postdose. For study Part 2, Cohorts 5, 6, and 7 blood samples were taken on Days 1, 14, and 28 at predose and up to 168 hours postdose. The appropriate PK parameters, e.g., Cmax, Tmax, AUC0-24, AUC0-last, AUC0-inf, AUC % ext, Kel, t½, RCmax, and RAUC were presented, where appropriate. Plasma 15(S)-HEPE data contained many values below the limit of quantitation (BLQ) and only sparse measurable concentrations leading to incomplete PK profiles. Given the nature of the data observed, conventional dose proportionality and steady-state analyses could not be performed. No inferential statistical analyses were performed for PK parameters.
(§4) Summary statistics, including sample size (N), arithmetic mean (mean), standard deviation (SD), coefficient of variation (CV %), median, minimum, and maximum were calculated for all nominal concentration time points. Plasma 15(S)-HEPE PK parameters were tabulated by treatment and listed by subject and parameter. Summary statistics (N, mean, SD, CV %, median, minimum, and maximum) were calculated for plasma 15(S)-HEPE PK parameters. In addition, geometric mean (Geom. Mean) and geometric CV % (Geom. CV %) were presented for AUCs and Cmax. Excluded subjects were included in the PK parameter table listings, but were excluded from the summary statistics and noted as such in the tables. Mean and individual concentration-time profiles were presented on linear and semi-log scales. Linear mean plots were presented with and without SD. Individual plots were presented on linear and semi-log scales.

[2] = Phase I Part 1 food effect pharmacokinetics of plasma 15(S)-HEPE (standard ATPIII/TLC diet, high-fat diet); conditions: for Tlast / Tmax: median
Procedure: as §1
Cohort 2 also received 500 mg of DS102 in 2 fed states. While the first 500 mg dose was given in fasted state, the second and third 500 mg doses were given in fed state (standard ATPIII/TLC diet and high-fat diet, respectively). The second dose was received at least 14 days after their first dose and the third dose was received at least 14 days after their second dose.
as §2, §3, §4

[3] = Phase I safety evaluation (AEs, clinical laboratory tests, vital signs, ECGs); conditions: healthy subjects
Procedure: as §1
All clinical safety data were presented in by-subject data listings. Safety was evaluated by clinical laboratory tests, physical examination, vital signs, electrocardiograms (ECGs), and adverse events (AEs).
Continuous variables were summarized using number of observations (N), mean, SD, median, minimum, and maximum. Frequency counts were reported for categorical data. AEs were classified according to the Medical Dictionary for Regulatory Activities (MedDRA®), Version 18.0. Concomitant medications were classified according to the World Health Organization (WHO) Drug Dictionary 1 Mar. 2015. Vital sign, ECG, and laboratory summary and change from baseline results were presented. Shift tables were also presented for laboratory and ECG parameters.

[4] = Phase I Part 2 multiple ascending dose (MAD) pharmacokinetics of plasma 15(S)-HEPE, QD for 28 days, fasted; conditions: for AUC0-last / Cmax: geom. mean; for Tlast / Tmax: median; for RAUC / RCmax: mean ± SD
Procedure: as §1
Part 2 of the study involved a multipledose regimen at 3 dose levels using 3 cohorts consisting of 8 subjects each. Six (6) subjects were randomized to receive DS102 and 2 subjects received matching placebo. Cohorts 5 and 6 (9 and 8 subjects, respectively) received oral DS102 or placebo QD for 28 days.
In Part 2, DS102 capsules (Lot No. 2540M-1504) or matching placebo (Lot No. KM73) were administered QD for 28 days according to Table 2.
as §3, §4

[5] = single oral 500 mg fasted, N = 2
[6] = single oral 1000 mg fasted, N = 3
[7] = single oral 2000 mg fasted, N = 3
[8] = plasma 15(S)-HEPE, single oral 500 mg fed high fat diet, N = 6, geom. mean
[9] = plasma 15(S)-HEPE, single oral 500 mg fed high fat diet, N = 6
[10] = plasma 15(S)-HEPE, single oral 500 mg fed standard diet, N = 6, geom. mean
[11] = plasma 15(S)-HEPE, single oral 500 mg fed standard diet, N = 6
[12] = single oral 500 mg with a standard or high-fat diet
[13] = 500 mg QD fasted, Days 14 and 28
[14] = plasma 15(S)-HEPE, 500 mg QD fasted, Day 1, N = 6
[15] = plasma 15(S)-HEPE, 500 mg QD fasted, Day 1, reported only for Subject 38
[16] = plasma 15(S)-HEPE, 500 mg QD fasted, Day 14, N = 3
[17] = plasma 15(S)-HEPE, 500 mg QD fasted, Day 28, N = 2

## 15-Hydroxy-Eicosapentaenoic Acid Ethyl Ester [DS102]
[1]; [5]
  AUC0-last: 1270 (70.9) ng * hr/mL and 1270 ng * hr/mL
  Cmax: 343.7 (52.1) ng/mL and 343.7 ng/mL
  Tlast: 8.001 (8.00, 8.00) hr and 8.001 hr
  Tmax: 6.005 (6.00, 6.01) hr and 6.005 hr
[1]; [6]
  AUC0-last: 1063 (102.6) ng * hr/mL
  Cmax: 366.2 (102.5) ng/mL
  Tlast: 7.999 (8.00, 8.00) hr
  Tmax: 5.996 (5.99, 6.00) hr
[1]; [7]
  AUC0-last: 733.3 (56.5) ng * hr/mL
  Cmax: 294.3 (70.1) ng/mL
  Tlast: 8.001 (8.00, 8.01) hr
  Tmax: 8.001 (6.01, 8.01) hr
[1]; single oral 100 mg fasted, entire sampling interval, all subjects
  Plasma concentrations of 15(S)-HEPE: BLQ
[1]; single oral 500 mg fasted
  median Tmax: 6.00 h
[1]; single oral 1000 mg fasted
  median Tmax: 6.00 h
[1]; single oral 2000 mg fasted
  median Tmax: 8.00 h
[2]; 500 mg with high-fat diet compared to standard diet
  delay of apparition of 15(S)-HEPE in plasma: 2 h
[2]; fed state (standard or high-fat diet)
  effect of fed state on 15(S)-HEPE absorption: considerably increase 15(S)-HEPE absorption
[2]; [8]
  AUC0-last: 9693 ng·h/mL
  Cmax: 2402 ng/mL
[2]; [9]
  Tlast: 11.993 h
  Tmax: 6.021 h
[2]; [10]
  AUC0-24: 10940 ng·h/mL
  AUC0-last: 8450 ng·h/mL
  Cmax: 2420 ng/mL
[2]; [11]
  Tlast: 8.017 h
  Tmax: 4.014 h
[2]; plasma 15(S)-HEPE, single oral 500 mg fed standard diet, calculable for 4 subjects, geom. mean
  AUC0-inf: 11050 ng·h/mL
[2]; plasma 15(S)-HEPE, single oral 500 mg fed standard diet, calculable for 4 subjects, mean ± SD
  t½: 1.998 ± 1.5155 h
[2]; plasma 15(S)-HEPE, single oral 500 mg fed standard diet, mean ± SD
  Kel: 0.471 ± 0.228 h⁻¹
[2]; single oral 500 mg after a high-fat diet
  median Tmax: 6.00 h
[2]; single oral 500 mg after a standard diet
  median Tmax: 4.00 h
[2]; [12]
  time at which peak mean plasma concentrations were reached: approximately 4 hours
  time plasma concentrations remained quantifiable in at least one subject: 12 hours postdose
[2]; single oral 500 mg, standard diet
  mean 15(S)-HEPE t½: 2.00 h and 2.0 h
[2]; single oral 500 mg, standard or high-fat diet relative to fasted
  effect of diet on mean maximum and overall exposure of 15(S)-HEPE (Cmax and AUC0-last): increased mean maximum and overall exposure
[2]; single oral 500 mg, standard or high-fat diet vs fasted
  mean plasma concentrations of 15(S)-HEPE, fed versus fasted: higher under fed conditions
[3]; following DS102 treatment
  adverse events considered related to the study treatment: dysguesia and eructation
[3]; single and multiple ascending doses
  deaths, serious adverse events, discontinuations due to AEs: no deaths, serious adverse events (SAEs), or subject discontinuations due to AEs
[3]; single ascending doses of 100 mg, 500 mg, 1000 mg and 2000 mg and multiple ascending doses of 500 mg, 500 and 1000 mg
  safety and tolerability: safe and well tolerated
[4]; 500 mg QD fasted, Day 1
  time of peak mean 15(S)-HEPE concentrations: 4 h
[4]; 500 mg QD fasted, Day 14
  time plasma concentrations remained measurable in at least one subject: 24 hours postdose
[4]; 500 mg QD fasted, Days 1 and 28
  time plasma concentrations remained measurable in at least one subject: 12 hours postdose
[4]; [13]
  predose values (troughs): not quantifiable
  time of peak mean 15(S)-HEPE concentrations: 6 h
[4]; 1000 mg QD fasted
  mean plasma 15(S)-HEPE concentrations by study day: higher on Day 14 than on Days 1 and 28
[4]; 1000 mg QD fasted, Day 14
  time plasma concentrations remained quantifiable in at least one subject: 12 hours postdose
[4]; 1000 mg QD fasted, Days 1 and 28
  time plasma concentrations remained quantifiable in at least one subject: 8 hours postdose
[4]; 1000 mg QD fasted, Days 14 and 28
  predose values (troughs): no quantifiable predose values
[4]; [14]
  AUC0-last: 1681 ng·h/mL
  Cmax: 459.1 ng/mL
  Tlast: 8.079 h
  Tmax: 5.005 h
[4]; [15]
  AUC0-24: 6249 ng·h/mL
  AUC0-inf: 6277 ng·h/mL
  Kel: 0.245 h⁻¹
  t½: 2.824 h
[4]; [16]
  AUC0-last: 2370 ng·h/mL
  Cmax: 644.1 ng/mL
  RAUC: 6.807 ± 10.322
  RCmax: 4.177 ± 5.4055
  Tlast: 8.034 h
  Tmax: 5.995 h
[4]; [17]
  AUC0-last: 2787 ng·h/mL
  Cmax: 737.4 ng/mL
  RAUC: 8.205 ± 10.210
  RCmax: 5.923 ± 6.8329
  Tlast: 10.002 h
  Tmax: 6.004 h
